The structures appear in SMILES notation. In brackets after ≈: the same amount, converted by molar mass. Where two headings read alike, the source gives them in different places. A value given as a limit tells only on which side of the number the result lay.

For experiment [1] the following is noted: comparison among long-chain fatty acids; cited from earlier work.
The test system of experiment [2] is C. albicans. Conditions: cited from earlier work.
Experiment [3] concerns Candida Species. The experiment is described as follows: minimum inhibitory concentration against Candida. Type of experiment: cell-based. Conditions: conversion of 0.45 μmoles/ml.
In experiment [4] the test system is Candida Species. The note with it: cited from earlier work.
The test system of experiment [5] is oral pathogenic microorganisms. Conditions: n-6 fatty acids GLA; cited from earlier work.

Consider `CCCCCC/C=C\CCCCCCCC(=O)O` [palmitoleic acid], for which the “antimicrobial activity among the long-chain fatty acids” value in experiment [1] is given as “greatest antimicrobial activity”.

`CCCCC/C=C\C/C=C\C/C=C\C/C=C\CCCC(=O)O` [arachidonic acid]: the “antimicrobial activity among the long-chain fatty acids” value in experiment [1] is listed as “greatest antimicrobial activity”. A word on the MIC: it is the lowest concentration found to suppress growth. On to `CCCCC/C=C\C/C=C\CCCCCCCC(=O)O` [linoleic acid], for which the “activity against C. albicans” value in experiment [2] is given as < 40%. Besides, the MIC is 0.13 µg/mL (≈ 0.464 µM) in experiment [3] and 450 µM (≈ 126 µg/mL) in experiment [4]. In addition, in experiment [1], the “antimicrobial activity among the long-chain fatty acids” value was “greatest antimicrobial activity”. On to `CCCCCCCCCCCCCCCC(=O)O` [palmitic acid], for which the “antimicrobial activity among the long-chain fatty acids” value in experiment [1] is listed as “greatest antimicrobial activity”. Take `CCCCC/C=C\C/C=C\C/C=C\CCCCC(=O)O` [GLA, gamma linoleic acid]: the bactericidal concentration in experiment [5] was 25 µg/mL. The “antimicrobial activity among the long-chain fatty acids” value in experiment [1] is reported as “greatest antimicrobial activity”.

The record behind these values is patent US11000487B2, “Compositions and methods for the treatment of chronic pain” (CELLIX BIO PRIVATE LIMITED, priority 2016, dated 2021).
